Assay results from paper PMC9068900, “Pharmacology of Kappa Opioid Receptors: Novel Assays and Ligands” (Frontiers in Pharmacology, 2022).
Values joined by “and” are separate entries in the source; they are usually repeats but may differ in a detail not shown here. Identical values can stand only once. Like-named read-outs stand apart in the source and are kept apart here. Non-standard residues stand in square brackets, D forms with d. Residues, ends and D or L forms follow the SMILES beside them. Dmt = Cc1cc(O)cc(C)c1C[C@H](N)C(=O)O; Tic = O=C(O)[C@@H]1Cc2ccccc2CN1

Assays:
kappa opioid receptor [1] = details: ref Simonin et al., 1995; cited from earlier work
kappa opioid receptor [2] = system: kappa opioid receptor; design: method as in Zhu et al., 1997; Birch et al., 1987; details: ref Zhu et al., 1997; Birch et al., 1987; cited from earlier work
[3] = target: T1, human kappa opioid receptor (Homo sapiens, UniProt P41145); assay: Calcium mobilization in CHO cells co-expressing the kappa receptor and Gαqi5; format: cell-based; design: expressed in transfected cells
T1 sequence (P41145 whole entry): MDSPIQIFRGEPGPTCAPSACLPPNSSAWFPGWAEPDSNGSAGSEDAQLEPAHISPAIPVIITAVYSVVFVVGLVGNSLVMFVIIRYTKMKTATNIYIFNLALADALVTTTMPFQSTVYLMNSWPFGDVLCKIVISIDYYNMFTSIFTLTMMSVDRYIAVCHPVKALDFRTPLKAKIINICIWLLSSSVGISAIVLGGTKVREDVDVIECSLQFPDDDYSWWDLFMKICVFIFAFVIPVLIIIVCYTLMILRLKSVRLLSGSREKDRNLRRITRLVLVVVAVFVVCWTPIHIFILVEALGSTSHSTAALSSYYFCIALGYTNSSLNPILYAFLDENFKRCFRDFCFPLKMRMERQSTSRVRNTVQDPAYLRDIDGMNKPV

[4] = target: T1, human kappa opioid receptor; assay: Dynamic mass redistribution (DMR) label-free assay in CHO cells; format: cell-based; design: expressed in transfected cells
Procedure: DMR experiments were conducted as previously described ([Malfacini et al., 2018]). Chinese Hamster Ovary (CHO) cells stably expressing the human kappa receptor were kindly provided by L Toll (Torrey Pines Institute for Molecular Studies, Port St. Lucie, United States). Cells were cultured in Dulbecco’s Modified Eagle Medium: Nutrient Mixture F-12 (DMEM/F12) supplemented with 10% (v/v) Fetal Calf Serum (FCS), 100 U/ml penicillin, 100 μg/ml streptomycin, 2 mM L-glutamine, 15 mM HEPES. The medium was supplemented with 400 μg/ml G418 to maintain expression. Cells were seeded at a density of 45,000 cells/well in 120 μL into fibronectin-coated EnspireTM-LC 96-wells plates and cultured for 20 h to form a confluent monolayer. On the day of the experiment, cells were washed twice and maintained with assay buffer: HBSS with 20 mM HEPES, 0.01% BSA fraction V; for 90 min before the experiment. DMR was monitored in real-time with a temporal resolution of 44 s throughout the assay. Experiments were performed at 37°C, using an EnSight Multimode Plate Reader (PerkinElmer). A 5 min baseline was first established, followed by adding compounds manually in a volume of 40 μL and recording compound-triggered DMR signal for 60 min. In antagonism experiments, ligands tested as antagonists were added 30 min before agonist administration. Maximum picometers (pm) modification (peak) were used to determine agonist response after baseline normalization.
The pharmacological terminology is consistent with the International Union of Basic and Clinical Pharmacology (IUPHAR) recommendations ([Neubig et al., 2003]). Concentration-response curves to agonists were fitted to the four-parameter logistic nonlinear regression model as follows: Effect=Basal+ Emax−Basal/1+10^ (LogEC50−Log[ligand]) × HillSlope
If unsurmountable antagonist behavior was detected, the pKB value was derived as follows: a double-reciprocal plot of equi-effective concentrations of agonist (A) in the absence (1/A) and presence (1/A’) of the antagonist (B) was constructed and pKB was derived from the equation pKB = log {(slope-1)/[B]} ([Kenakin, 2009]).

[5] = target: T1, human kappa opioid receptor; assay: biochemical; format: biochemical; design: 13-mer linker peptide […]; expressed in transfected cells; enriched plasma membranes used
[6] = target: T1, human kappa opioid receptor; assay: BRET kappa-β-arrestin 2 interaction, SH-SY5Y whole cells; format: cell-based; design: 13-mer linker peptide […]; expressed in transfected cells; enriched plasma membranes used
kappa opioid receptor [7] = system: kappa opioid receptor; design: method as in Guerrini et al., 1998; details: ref Guerrini et al., 1998; cited from earlier work
guinea pig ileum = system: guinea pig ileum; design: method as in Guerrini et al., 1998; details: ref Guerrini et al., 1998; cited from earlier work
rabbit jejunum = system: rabbit jejunum; design: method as in Guerrini et al., 1998; details: ref Guerrini et al., 1998; cited from earlier work

## Oc1ccc2c3c1O[C@H]1c4[nH]c5c(c4C[C@@]4(O)[C@@H](C2)N(CC2CC2)CC[C@]314)C[C@@]1(O)[C@H]2Cc3ccc(O)c4c3[C@@]1(CCN2CC1CC1)[C@H]5O4 [Nor-BNI, Nor-Binaltorphimine]
Kappa opioid receptor [1]
  Affinity: approximately 1 nM
Kappa opioid receptor [2]
  Potency: 0.1 nM
[3]; CHO cells, human kappa + Gαqi5
  Calcium Mobilization pEC50 (CL95%): inactive
  Calcium Mobilization α (intrinsic activity: maximal effect divided by that of Dyn A): inactive
[3]; tested as agonist
  Stimulation of calcium flux (in words): completely inactive
[4]; CHO cells, human kappa
  DMR pEC50 (CL95%): inactive
[4]; relative to Dyn A
  DMR α: inactive
[4]; tested as agonist
  Effect on DMR baseline (in words): did not modify DMR baseline
[5]; 5 min, fraction of Dyn A maximal effect
  Emax ± sem: inactive
[5]; 5 min after compound addition
  pEC50 (CL95%): inactive
[6]; SH-SY5Y cells, kappa-RLuc/β-arrestin 2-RGFP
  BRET β-Arrestin 2 pEC50 (CL95%): inactive
[6]; relative to Dyn A
  BRET β-Arrestin 2 α: inactive

## CC[C@H](C)[C@H](NC(=O)[C@H](CCCNC(=N)N)NC(=O)[C@H](CCCNC(=N)N)NC(=O)[C@H](CC(C)C)NC(=O)[C@H](Cc1ccccc1)NC(=O)CNC(=O)[C@@H]1Cc2ccccc2CN1C(=O)[C@@H](N)Cc1c(C)cc(O)cc1C)C(=O)N[C@@H](CCCNC(=N)N)C(=O)N1CCC[C@H]1C(=O)N[C@@H](CCCCN)C(N)=O [[Dmt^1,Tic^2], [Dmt^1,Tic^2]Dyn(1-11)-NH2] (H-[Dmt][Tic]GFLRRIRPK-NH2; N-terminus assumed)
Kappa opioid receptor [7]
  Affinity at the mu opioid receptor relative to kappa (in words): equal affinity
  Affinity values: 3.3—4.3 nM
  Higher affinity at the delta opioid receptor: 10 fold
Guinea pig ileum
  Antagonist potency: 90 nM
Rabbit jejunum
  Antagonist potency: 8 nM
[3]
  Calcium Mobilization pA2 (CL95%): 6.6
  Calcium Mobilization pEC50 (CL95%): ∼6.9
  Calcium Mobilization α (intrinsic activity: maximal effect divided by that of Dyn A): 0.15
  Increase of calcium levels: 50 % over the baseline
[3]; cho cells
  Calcium Mobilization pA2 (CL95%): 6.6 (6.16–7.14)
[4]
  DMR pA2 (CL95%): 7.7
  DMR pEC50 (CL95%): 7.11 (5.61–8.61)
  DMR α: 0.47
  Effect on DMR baseline (in words): slightly stimulated the DMR response only at micromolar concentrations
[4]; cho cells
  DMR pA2 (CL95%): 7.7 (7.11–8.29)
[5]
  BRET G Protein pA2 (CL95%): 7.5
  BRET G Protein pEC50 (CL95%): 6.95 (6.14–7.75)
  BRET G Protein α: 0.35
  Emax ± sem: 0.30 ± 0.02 and 0.35 ± 0.06
  pEC50 (CL95%): 7.09
[5]; sh-sy5y cell membranes
  BRET G Protein pA2 (CL95%): 7.5 (5.35–9.65)
[6]
  BRET β-Arrestin 2 pA2 (CL95%): 7.3
  BRET β-Arrestin 2 pEC50 (CL95%): inactive
  BRET β-Arrestin 2 α: inactive
  Residual agonist activity (in words): did not show any residual agonist activity
[6]; sh-sy5y cells
  BRET β-Arrestin 2 pA2 (CL95%): 7.3 (6.5–8.1)
